Test results published in patent US20090326441A1, “Ultrasonic Enhanced Microneedles” (AGENCY FOR SCIENCE ,TECHNOLOGY AND RESEARCH, priority 2006, published 2009).

Test: Penetration of calcein through pig skin in Franz cell test device
Format: in vitro ADME
Conditions: calcein solution 1 mmol, 0.523 mg/ml, receiving liquid PBS, 37° C., FIG. 9
Description: An injection device according to the present invention was constructed as described above. Testing was performed using calcein on pig skin, using the apparatus in FIG. 8. The graph of FIG. 9 presents the results of testing in three different situations: without enhancers, with hollow microneedles and using the method of the present invention, using microneedles with ultrasonic enhancement. With reference to FIG. 8, test device 10 comprises injection device 20 which has been applied to skin sample 30. Pig skin sample 30 communicates with a receiving liquid in receiving chamber 40. Arm 50 is provided to chamber 40 for inserting or withdrawing the receiving liquid. Chamber 40 is located in Franz cell 60, which comprises a water bath 65 and inlet and outlet ports 70 and 75 respectively for maintaining the receiving liquid at a constant temperature. Sample chamber 80 is provided for holding a test sample. […]
In order to conduct the test using test device 10, calcein solution (1 mmol, 0.523 mg/ml) was placed in chamber 80 so as to supply the solution to device 20, and a receiving liquid (PBS: phosphate buffered saline) was loaded into chamber 40. […] The concentration of calcein in the receiving liquid was then monitored by withdrawing aliquots from arm 50 and analysing them. […]

SMILES: O=C(O)CN(CC(=O)O)Cc1cc2c(cc1O)Oc1cc(O)c(CN(CC(=O)O)CC(=O)O)cc1C21OC(=O)c2ccccc21 [calcein]
- transport of calcein across the skin sample (microneedles and ultrasound (20 kHz, 0.5 Wcm^−2), compared with microneedles alone): enhanced
- transport of calcein across the skin sample (microneedles, no ultrasound, compared with no microneedles (without enhancers)): improvement
